According to PubChem BioAssay (NCI):
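Test compounds were applied to cells in 96-well plates for 48 hours at 5 doses. GI50 marks 50% less growth. TGI: concentration producing complete growth inhibition.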

Legend:
Test in all cases: inhibition of tumour cell growth, NCI panel, 48 h
[1] = system: OVCAR-4 ovarian
[2] = system: 786-0 renal
[3] = system: UO-31 renal
[4] = system: OVCAR-5 ovarian
[5] = system: SK-MEL-2 melanoma
[6] = system: SN12C renal
[7] = system: CCRF-CEM leukemia
[8] = system: NCI-H522 lung
[9] = system: MOLT-4 leukemia

| SMILES | TGI [1] | TGI [2] | TGI [3] | TGI [4] | TGI [5] | TGI [6] | TGI [7] | TGI [8] | TGI [9] | GI50 [9] | GI50 [1] | GI50 [2] | GI50 [3] | GI50 [4] | GI50 [5] | GI50 [6] | GI50 [7] | GI50 [8] |
| --- | --- | --- | --- | --- | --- | --- | --- | --- | --- | --- | --- | --- | --- | --- | --- | --- | --- | --- |
| Cc1nc2c(=O)n(C)c(=O)nc-2n(-c2ccc(Cl)cc2)c1C | 84.4 µM | > 100 µM | > 100 µM | > 100 µM | > 100 µM | > 100 µM | > 100 µM | > 100 µM |  |  |  |  |  |  |  |  |  |  |
| COCC(O)CN1C(N)=NC(O)C1O (configuration not stated) |  | > 100 µM | > 100 µM | > 100 µM | > 100 µM | > 100 µM |  | > 100 µM |  |  |  |  |  |  |  |  |  |  |
| O=C1[C@@H]2C3C=CC([C@H]4C(=O)N(CO)C(=O)[C@@H]34)[C@@H]2C(=O)N1CO | > 100 µM | > 63.6 µM | > 100 µM | > 100 µM | > 100 µM | > 100 µM | 59.3 µM | > 56.5 µM | > 100 µM |  |  |  |  |  |  |  |  |  |
| O=C1c2ccccc2CC1C1(O)C(=O)Nc2c(Cl)cc(Cl)cc21 (configuration not stated) | > 100 µM | > 100 µM | > 100 µM | > 100 µM | > 100 µM | > 100 µM | > 100 µM | 47.3 µM | > 100 µM |  |  |  |  |  |  |  |  |  |
| NCCN.O=N[O-].O=N[O-].O=N[O-].O=N[O-].[Co+3].[K+] | > 100 µM | > 100 µM | > 100 µM | > 100 µM | > 100 µM | > 100 µM | > 100 µM | > 100 µM | > 100 µM | > 100 µM | > 100 µM | > 100 µM | > 100 µM | > 100 µM | > 100 µM | > 100 µM | > 100 µM | > 100 µM |
| CCCCCC1C2C(=O)NC(=O)C1C(=O)NC2=O (configuration not stated) | > 100 µM | > 100 µM | > 100 µM | > 100 µM | > 100 µM | > 100 µM | > 100 µM | > 100 µM | > 100 µM |  |  |  |  |  |  |  |  |  |
| Cc1nn(C(=O)CC(=O)Nc2ccccc2Cl)c(C)c1N=Nc1ccccc1Cl | > 100 µM | > 100 µM | > 100 µM | > 100 µM | > 100 µM | > 100 µM | > 100 µM |  | > 100 µM |  |  |  |  |  |  |  |  |  |
| O=S(O)CCCSSCCCCSSCCCS(=O)O | > 100 µM | > 100 µM | > 100 µM | > 100 µM | > 100 µM | > 100 µM | > 100 µM | > 100 µM | > 100 µM |  |  |  |  |  |  |  |  |  |
| O=C(Nc1cccc(Cl)c1)c1cc2cc(N=Nc3ccc(Br)cc3)ccc2oc1=O | 88.7 µM | > 100 µM | > 100 µM | 58 µM | 52.7 µM | > 100 µM |  | > 100 µM | 77.7 µM |  |  |  |  |  |  |  |  |  |
| CC(=O)OC12CCCCC1C1(CCCC1)NC2=O (configuration not stated) | > 100 µM | > 100 µM | > 100 µM | > 100 µM |  | > 100 µM | > 100 µM |  | > 100 µM |  |  |  |  |  |  |  |  |  |
| Cc1ccc(S(=O)(=O)c2ccccn2)cc1 | > 100 µM | > 100 µM | > 100 µM | 97.2 µM | > 100 µM | > 100 µM | > 100 µM | > 100 µM | > 100 µM |  |  |  |  |  |  |  |  |  |
| Nc1n[nH]c(=O)c2c1c(Br)cn2C1OC(CO)C(O)C1O (configuration not stated) | 26.3 µM | > 100 µM | 26.8 µM | 44 µM | 41.4 µM | 43.5 µM | 19.2 µM | 25.2 µM | 9.3 µM |  |  |  |  |  |  |  |  |  |
| O=C(Cc1nc2ccccc2s1)C(=O)Nc1ccccc1C(F)(F)F | > 100 µM | > 100 µM | > 100 µM | > 100 µM | > 100 µM | > 100 µM | > 100 µM | > 100 µM | > 100 µM |  |  |  |  |  |  |  |  |  |
| Cc1ccc(S(=O)(=O)NC2(C=O)CCC(C(C)(C)C)CC2)cc1 (configuration not stated) | > 100 µM | > 100 µM | > 100 µM | > 100 µM | > 100 µM | 68.7 µM |  | 54.9 µM | 41.3 µM |  |  |  |  |  |  |  |  |  |
| COc1ccc2nccc(C3OC(=O)N4CCC(=O)CC34)c2c1 (configuration not stated) | > 100 µM | > 100 µM | > 100 µM | > 100 µM | > 100 µM | > 100 µM | > 100 µM | 28.7 µM | > 100 µM |  |  |  |  |  |  |  |  |  |
| CCc1cccc(C(C)C)c1C1C(=O)C(=O)N(c2nc3ccccc3s2)C(=O)C1=O | > 100 µM | > 100 µM | > 100 µM | > 100 µM | > 100 µM | > 100 µM | > 100 µM |  | > 100 µM |  |  |  |  |  |  |  |  |  |
| O=c1c2ccccc2nc(-c2ccccc2Cl)n1NC1OC(CO)C(O)C(O)C1O (configuration not stated) | > 100 µM | > 100 µM | > 100 µM | > 100 µM | > 100 µM | > 100 µM | > 100 µM | > 100 µM | > 100 µM |  |  |  |  |  |  |  |  |  |
| S=C(N/N=C/c1ccccc1)NC1CC(c2ccccc2)Oc2ccccc21 (configuration not stated) | 71.3 µM | > 100 µM | > 100 µM | > 100 µM | > 100 µM | > 100 µM |  | > 100 µM |  |  |  |  |  |  |  |  |  |  |
| COC(=O)c1c(OC(=O)c2ccccc2)noc1CC(=O)OC1C=CCCC1 (configuration not stated) | > 100 µM | > 100 µM | > 100 µM |  | > 100 µM | > 100 µM | > 100 µM | > 100 µM | > 100 µM |  |  |  |  |  |  |  |  |  |
